Measurements taken from US20240166643A1, “IMIDAZO[1,2-A]PYRIDINE COMPOUNDS AND THEIR USE IN THERAPY” (Imperial College Innovations Limited, priority 2020, published 2024).

Tests used:
Human NMT1 (HsNMT1) = Human NMT1 (HsNMT1) (Homo sapiens, UniProt P30419); assay: biochemical
[1] = test system: Plasmodium falciparum 3D7; assay: SYBR Green assay, Plasmodium falciparum strain 3D7; type: cell-based; details: P. falciparum strain 3D7, 96 h incubation, read-out: Pf EC50 strain 3D7
[2] = biological target: Plasmodium vivax (Pv) NMT (Plasmodium vivax (strain Salvador I), UniProt A5K1A2); assay: biochemical
Chain of Plasmodium vivax (Pv) NMT (A5K1A2 1-410): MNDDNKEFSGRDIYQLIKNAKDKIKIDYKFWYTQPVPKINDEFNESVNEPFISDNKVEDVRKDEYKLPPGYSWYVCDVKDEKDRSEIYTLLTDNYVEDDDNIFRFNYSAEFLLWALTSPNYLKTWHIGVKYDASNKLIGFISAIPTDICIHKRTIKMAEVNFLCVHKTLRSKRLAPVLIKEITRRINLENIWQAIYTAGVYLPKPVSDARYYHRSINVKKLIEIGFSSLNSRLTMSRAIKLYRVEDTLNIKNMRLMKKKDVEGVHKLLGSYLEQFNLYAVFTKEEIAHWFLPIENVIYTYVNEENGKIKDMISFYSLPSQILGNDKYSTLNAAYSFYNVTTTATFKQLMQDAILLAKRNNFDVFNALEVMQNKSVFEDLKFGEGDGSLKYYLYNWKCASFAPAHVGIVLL

Chain of Human NMT1 (HsNMT1) (P30419 whole entry, looked up): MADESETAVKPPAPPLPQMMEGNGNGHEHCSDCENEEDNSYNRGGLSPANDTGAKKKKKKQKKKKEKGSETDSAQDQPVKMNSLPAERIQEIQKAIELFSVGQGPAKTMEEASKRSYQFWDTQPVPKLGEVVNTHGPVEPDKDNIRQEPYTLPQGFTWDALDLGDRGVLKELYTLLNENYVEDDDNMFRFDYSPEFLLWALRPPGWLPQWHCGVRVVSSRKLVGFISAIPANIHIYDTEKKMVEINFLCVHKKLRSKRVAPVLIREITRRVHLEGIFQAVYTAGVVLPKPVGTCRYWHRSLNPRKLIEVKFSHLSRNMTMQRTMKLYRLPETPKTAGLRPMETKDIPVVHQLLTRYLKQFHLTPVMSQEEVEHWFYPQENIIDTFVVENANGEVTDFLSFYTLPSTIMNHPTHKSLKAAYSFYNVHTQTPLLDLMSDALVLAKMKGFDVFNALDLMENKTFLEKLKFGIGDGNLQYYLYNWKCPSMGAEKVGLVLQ

| Structure (SMILES) | IC50 (Human NMT1 (HsNMT1)) [nM] | EC50 [1] [nM] | IC50 [2] [nM] |
| --- | --- | --- | --- |
| C[C@H]1CN(c2ncc(Cl)c(N3CC(C(=O)N(C)C(C)(C)c4cnc5ccccn45)C3)n2)CCN1C [Example 140, (S)-1-(5-chloro-2-(3,4-dimethylpiperazin-1-yl)pyrimidin-4-yl)-N-(2-(imidazo[1,2-a]pyridin-3-yl)propan-2-yl)-N-methylazetidine-3-carboxamide] | 146 |  |  |
| O=C(NCc1cnc2ccccn12)C1CN(c2nc(N3CCCNCC3)ncc2Cl)C1 [Example 5] |  | 2500 | 14 |
| CC1CN(c2ncc(Cl)c(N3CC(C(=O)NCc4cnc5ccccn45)C3)n2)CCN1 (stereo not shown) [Example 29] | 79 | 620 | 18 |
| C[C@@H]1CN(c2ncc(F)c(N3CC(C(=O)NC(C)(C)c4cnc5ccccn45)C3)n2)[C@@H](C)CN1C [Example 111, 1-{5-fluoro-2-[(2S,5R)-2,4,5-trimethylpiperazin-1-yl]pyrimidin-4-yl}-N-(2-{imidazo[1,2-a]pyridin-3-yl}propan-2-yl)azetidine-3-carboxamide] |  | 450 |  |
| COc1cnc(N2CCN(C)CC2)nc1N1CC(C(=O)NC(C)(C)c2cnc3ccccn23)C1 [Example 63] |  | 180 | 71 |
| CN(c1ncc(F)c(N2CC(C(=O)NC(C)(C)c3cnc4ccccn34)C2)n1)C1CCNC1 (stereo not shown) [Example 40] | 160 | 250 | 18 |
| CN1CCC(N(C)c2ncc(F)c(N3CC(C(=O)NC(C)(C)c4cnc5ccccn45)C3)n2)C1 (stereo not shown) [Example 58] | 37 | 410 | 13 |
| CC1CN(c2ncc(F)c(N3CC(C(=O)NC(C)(C)c4cnc5ccccn45)C3)n2)C[C@@H](C)N1 (stereo partly shown) [Example 47] | 43 | 140 | 12.2 |
| COc1cnc(N2C[C@H](C)N(C)[C@@H](C)C2)nc1N1CC(C(=O)NC(C)(C)c2cnc3ccccn23)C1 [Example 94, N-(2-{imidazo[1,2-a]pyridin-3-yl}propan-2-yl)-1-{5-methoxy-2-[(3S,5S)-3,4,5-trimethylpiperazin-1-yl]pyrimidin-4-yl}azetidine-3-carboxamide] |  | 440 |  |
| CC(NC(=O)C1CN(c2nc(N3CCNCC3)ncc2Cl)C1)c1cnc2ccccn12 (stereo not shown) [Example 30] | 26 | 960 | 8.5 |
| Cc1ccc2ncc(C(C)(C)NC(=O)C3CN(c4nc(N5CCN(C)[C@H](C)C5)ncc4F)C3)n2c1 [Example 97, 1-{2-[(3R)-3,4-dimethylpiperazin-1-yl}-5-fluoropyrimidin-4-yl}-N-(2-{6-methylimidazo[1,2-a]pyridin-3-yl}propan-2-yl)azetidine-3-carboxamide] | 25.7 | 69 | 4.9 |
| CN(C(=O)C1CN(c2nc(N3CCC(N)CC3)ncc2Cl)C1)C(C)(C)c1cnc2ccccn12 [Example 128, 1-(2-(4-aminopiperidin-1-yl)-5-chloropyrimidin-4-yl)-N-(2-(Imidazo[1,2-a]pyridin-3-yl)propan-2-yl)-N-methylazetidine-3-carboxamide] | 234 |  |  |
| C[C@H]1CN(c2ncc(Cl)c(N3CC(C(=O)NC(C)(C)c4cnc5ccccn45)C3)n2)CCN1C [Example 83, 1-{5-chloro-2-[(3S)-3,4-dimethylpiperazin-1-yl]pyrimidin-4-yl}-N-(2-{imidazo[1,2-a]pyridin-3-yl}propan-2-yl)azetidine-3-carboxamide] |  | 150 | 10 |
| COc1cnc(N2CCCN(C)CC2)nc1N1CC(C(=O)NC(C)(C)c2cnc3ccccn23)C1 [Example 62] | 5 | 11 | 6 |
| C[C@@H]1CN(c2ncc(F)c(N3CCC(C(=O)NC(C)(C)c4cnc5ccccn45)C3)n2)CCN1C (stereo partly drawn) [Example 86, 1-{2-[(3R)-3,4-dimethylpiperazin-1-yl}-5-fluoropyrimidin-4-yl}-N-(2-{imidazo[1,2-a]pyridin-3-yl}propan-2-yl)pyrrolidine-3-carboxamide] | 39 | 200 | 7 |
| CN(C(=O)C1CN(c2nc(N3CCCC(N)CC3)ncc2Cl)C1)C(C)(C)c1cnc2ccccn12 (stereo not shown) [Example 131, 1-(2-(4-aminoazepan-1-yl)-5-chloropyrimidin-4-yl)-N-(2-(imidazo[1,2-a]pyridin-3-yl)propan-2-yl)-N-methylazetidine-3-carboxamide] | 179 |  |  |
| C[C@@H]1CN(c2ncc(Cl)c(N3CC(C(=O)NC(C)(C)c4cnc5ccccn45)C3)n2)C[C@@H](C)N1C [Example 92, 1-{5-chloro-2-[(3R,5R)-3,4,5-trimethylpiperazin-1-yl]pyrimidin-4-yl}-N-(2-{imidazo[1,2-a]pyridin-3-yl}propan-2-yl)azetidine-3-carboxamide] | 55 | 260 | 41 |
| CN1CCN(c2ncc(F)c(N3CCC(C(=O)NC(C)(C)c4cnc5ccccn45)C3)n2)CC1 (stereo not shown) [Example 64] | 190 | 850 | 20 |

| Structure (SMILES) | IC50 (Human NMT1 (HsNMT1)) [nM] | EC50 [1] [nM] | IC50 [2] [nM] |
| --- | --- | --- | --- |
| C[C@@H]1CN(c2ncc(Cl)c(N3CC(C(=O)NC(C)(C)c4cnc5ccccn45)C3)n2)[C@@H](C)CN1C [Example 109, 1-{5-chloro-2-[(2S,5R)-2,4,5-trimethylpiperazin-1-yl]pyrimidin-4-yl}-N-(2-{imidazo[1,2-a]pyridin-3-yl}propan-2-yl)azetidine-3-carboxamide] |  | 120 |  |
| CC(C)(NC(=O)C1CN(c2nc(N3CCNCC3)ncc2F)C1)c1cnc2ccccn12 [Example 32] |  | 64 | 9.1 |
| C[C@@H]1CN(C)CCN1c1ncc(Cl)c(N2CC(C(=O)NC(C)(C)c3cnc4ccccn34)C2)n1 [Example 68] | 88 | 74 | 32 |
| C[C@@H]1CN(c2cc(N3CC(C(=O)NC(C)(C)c4cnc5ccccn45)C3)c(F)cn2)CCN1C [Example 104, 1-{2-[(3R)-3,4-dimethylpiperazin-1-yl]-5-fluoropyridin-4-yl}-N-(2-{imidazo[1,2-a]pyridin-3-yl}propan-2-yl)azetidine-3-carboxamide] |  | 35 |  |
| COc1cnc(N2CCNCC2)nc1N1CC(C(=O)NC(C)(C)c2cnc3ccccn23)C1 [Example 34] |  | 140 | 9.1 |
| CN(C(=O)C1CN(c2nc(N3CC4CC3CN4)ncc2Cl)C1)C(C)(C)c1cnc2ccccn12 (stereo not shown) [Example 132, 1-(2-(2,5-diazabicyclo[2.2.1]heptan-2-yl)-5-chloropyrimidin-4-yl)-N-(2-(imidazo[1,2-a]pyridin-3-yl)propan-2-yl)-N-methylazetidine-3-carboxamide] | 190 |  |  |
| C[C@H]1CN(c2ncc(Cl)c(N3CC(C(=O)NC(C)(C)c4cnc5ccccn45)C3)n2)CCN1 [Example 37] | 7.9 | 27 | 8.4 |
| Cc1ccc2ncc(C(C)(C)NC(=O)C3CN(c4nc(N5CCN(C)[C@H](C)C5)ncc4Cl)C3)n2c1 [Example 98, 1-{5-chloro-2-[(3R)-3,4-dimethylpiperazin-1-yl]pyrimidin-4-yl}-N-(2-{6-methylimidazo[1,2-a]pyridin-3-yl}propan-2-yl)azetidine-3-carboxamide] | 5.4 | 7 | 5.8 |
| CC1NCCN(c2ncc(Cl)c(N3CC(C(=O)NC(C)(C)c4cnc5ccccn45)C3)n2)C1C (stereo not shown) [Example 79] |  | 2.2 |  |
| C[C@@H]1CN(c2ncc(F)c(N3CC(C(=O)NC(C)(C)c4cnc5ccccn45)C3)n2)C[C@@H](C)N1C [Example 93, 1-{5-fluoro-2-[(3R,5R)-3,4,5-trimethylpiperazin-1-yl]pyrimidin-4-yl}-N-(2-{imidazo[1,2-a]pyridin-3-yl}propan-2-yl)azetidine-3-carboxamide] | 250 | 860 | 59 |
| CN1CCN(c2cc(N3CC(C(=O)NC(C)(C)c4cnc5ccccn45)C3)c(Cl)cn2)CC1 [Example 105, 1-[5-chloro-2-(4-methylpiperazin-1-yl)pyridin-4-yl]-N-(2-{imidazo[1,2-a]pyridin-3-yl}propan-2-yl)azetidine-3-carboxamide] |  | 18 |  |
| C[C@H]1CN(C)CCN1c1ncc(Cl)c(N2CC(C(=O)N(C)Cc3cnc4ccccn34)C2)n1 [Example 106, 1-{5-chloro-2-[(2S)-2,4-dimethylpiperazin-1-yl]pyrimidin-4-yl}-N-{imidazo[1,2-a]pyridin-3-ylmethyl}-N-methylazetidine-3-carboxamide] |  | > 1000 |  |
| C[C@H]1CN(c2ncc(F)c(N3CC(C(=O)NC(C)(C)c4cnc5ccccn45)C3)n2)CCN1 [Example 38] |  | 150 | 14 |
| C[C@@H]1CN(c2ncc(Cl)c(N3CC(C(=O)NC(C)(C)c4cnc5ccccn45)C3)n2)[C@H](C)CN1C [Example 110, 1-{5-chloro-2-[(2R,5R)-2,4,5-trimethylpiperazin-1-yl]pyrimidin-4-yl}-N-(2-{imidazo[1,2-a]pyridin-3-yl}propan-2-yl)azetidine-3-carboxamide] |  | 66 |  |
| CC(C)(NC(=O)C1CN(c2nc(N3CCCNCC3)nc3ccsc23)C1)c1cnc2ccccn12 [Example 123, 1-(2-(1,4-diazepan-1-yl)thieno[3,2-d]pyrimidin-4-yl)-N-(2-(Imidazo[1,2-a]pyridin-3-yl)propan-2-yl)azetidine-3-carboxamide] | 8 |  |  |
| COc1cnc(N2C[C@@H](C)N(C)[C@H](C)C2)nc1N1CC(C(=O)NC(C)(C)c2cnc3ccccn23)C1 [Example 91, N-(2-{imidazo[1,2-a]pyridin-3-yl}propan-2-yl)-1-{5-methoxy-2-[(3R,5R)-3,4,5-trimethylpiperazin-1-yl]pyrimidin-4-yl}azetidine-3-carboxamide] |  | 230 |  |
| C[C@@H]1CN(c2cc(N3CC(C(=O)NC(C)(C)c4cnc5ccccn45)C3)c(Cl)cn2)CCN1C [Example 103, 1-{5-chloro-2-[(3R)-3,4-dimethylpiperazin-1-yl]pyridin-4-yl}-N-(2-{imidazo[1,2-a]pyridin-3-yl}propan-2-yl)azetidine-3-carboxamide] |  | 5.3 |  |
| CC1CN(c2ncc(Cl)c(N3CC(C(=O)NC(C)(C)c4cnc5ccccn45)C3)n2)C[C@@H](C)N1 (stereo partly shown) [Example 46] |  | 57 |  |
